Some test systems named below: CCRF-CEM leukemia; HCC-2998 colon; CAKI-1 renal; SR leukemia; NCI-H226 lung; LOX IMVI melanoma; TK-10 renal; COLO 205 colon; UACC-257 melanoma; MALME-3M melanoma.
Holding throughout (test): NCI tumour cell line growth inhibition, 48 h

The structures appear in SMILES notation. Where “and” joins values, the source holds several entries; their conditions need not be identical. Equal entries are not always repeated.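 Grown in 96-well plates, cells were treated for 48 hours with each compound at five concentrations. Insufficient inhibition: endpoint recorded as highest concentration tested. GI50 = concentration required for 50% inhibition of growth. TGI: concentration producing complete growth inhibition.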

For the compound `Cc1ccc(Nc2cc(Cl)c([N+](=O)[O-])cc2[N+](=O)[O-])cc1`, the GI50 with CCRF-CEM leukemia was 1.96 µM; in the assay on HCC-2998 colon, 2.26 µM; in the assay with CAKI-1 renal, 4.19 µM; in the assay with SR leukemia it was 0.927 µM; with NCI-H226 lung it was 2.59 µM; with LOX IMVI melanoma, 1.15 µM. In addition, the GI50 in the assay on TK-10 renal is 6.03 µM; in the assay with COLO 205 colon, 2.11 µM; in the assay with UACC-257 melanoma, 5.25 µM; in the assay on MALME-3M melanoma it was 5.72 µM. The TGI with CCRF-CEM leukemia is 19.8 µM; in the assay on HCC-2998 colon, 4.81 µM; with CAKI-1 renal, 17.4 µM; in the assay on SR leukemia, 18.1 µM; in the assay on NCI-H226 lung, 6.81 µM; with LOX IMVI melanoma, 5.62 µM. The TGI came out at 17.5 µM in the assay on TK-10 renal, 3.92 µM in the assay on COLO 205 colon, 15.7 µM in the assay with UACC-257 melanoma and 14 µM with MALME-3M melanoma.

With `Cc1cc(-c2nnc(/C=C/c3ccc4c(c3)OCO4)o2)n[nH]1`, the GI50 in the assay with CCRF-CEM leukemia is 2.05 µM; in the assay on HCC-2998 colon, 10.7 µM; with CAKI-1 renal, 3.89 µM; in the assay on SR leukemia, 2.39 µM; in the assay with NCI-H226 lung it was above 50 µM; in the assay on LOX IMVI melanoma, 15.9 µM. The GI50 is 22.3 µM with TK-10 renal, 15.4 µM in the assay with COLO 205 colon, 23 µM with UACC-257 melanoma and 8.96 µM with MALME-3M melanoma. Also, the TGI with CCRF-CEM leukemia is 19.1 µM; in the assay with HCC-2998 colon it was above 50 µM; in the assay on CAKI-1 renal, above 50 µM; with SR leukemia, 48.3 µM; in the assay on NCI-H226 lung, above 50 µM; in the assay on LOX IMVI melanoma, above 50 µM. The TGI with TK-10 renal, in the assay with COLO 205 colon, with UACC-257 melanoma and in the assay with MALME-3M melanoma was above 50 µM in each case.

For `CS(=O)(=O)Nc1cc(-c2ccc3ncnc(Nc4ccc(F)c(Cl)c4)c3c2)cnc1Cl`, the GI50 is 0.378 µM and 0.309 µM in the assay with CCRF-CEM leukemia; 1.21 µM with HCC-2998 colon; 0.455 µM and 0.326 µM in the assay with CAKI-1 renal; 0.577 µM and 2.2 µM with SR leukemia; 1.63 µM and 1.33 µM in the assay on NCI-H226 lung; 0.503 µM and 0.468 µM in the assay with LOX IMVI melanoma. Besides, the GI50 with TK-10 renal was 0.261 µM; with COLO 205 colon, 0.562 µM and 1.06 µM; in the assay with UACC-257 melanoma it was 0.503 µM and 0.706 µM; with MALME-3M melanoma it was 0.191 µM and 0.179 µM. For the same compound, the TGI was 11.9 µM and 28.1 µM in the assay on CCRF-CEM leukemia; 4.05 µM with HCC-2998 colon; 9.55 µM and 2.23 µM with CAKI-1 renal; 5.56 µM and 43 µM with SR leukemia; 22.9 µM and 13.7 µM with NCI-H226 lung; 3.49 µM and 2.78 µM in the assay with LOX IMVI melanoma. Besides, the TGI with TK-10 renal was 2.28 µM; in the assay on COLO 205 colon, 2.19 µM and 4.53 µM; in the assay on UACC-257 melanoma it was 7.55 µM and 10.4 µM; in the assay with MALME-3M melanoma, 1.13 µM and 1.56 µM.

With `C=C1C(=O)OC2C1C(OC(=O)/C(C)=C/C)CC(O)(CCl)C1C(O)C=C(C)C21O` (centres undefined), the TGI is above 36.8 µM in the assay with CCRF-CEM leukemia; 25.6 µM with HCC-2998 colon; 11.4 µM in the assay on CAKI-1 renal; 29.2 µM in the assay with SR leukemia; 46.5 µM with NCI-H226 lung; 17.8 µM in the assay on LOX IMVI melanoma. Further, the TGI in the assay with TK-10 renal amounted to 27.6 µM; in the assay on COLO 205 colon it was 18.5 µM; in the assay with UACC-257 melanoma, 25.6 µM; with MALME-3M melanoma it was 8.9 µM.

`O=C1CC[C@H](N2Cc3c(OCc4ccc(CN5CCOCC5)cc4)cccc3C2=O)C(=O)N1`: the GI50 is above 100 µM in the assay with CCRF-CEM leukemia; above 100 µM in the assay with HCC-2998 colon; above 100 µM with CAKI-1 renal; 4.83 µM in the assay on SR leukemia; above 100 µM in the assay with NCI-H226 lung; above 100 µM with LOX IMVI melanoma. For the same compound, the GI50 in the assay on TK-10 renal, in the assay on COLO 205 colon, in the assay on UACC-257 melanoma and with MALME-3M melanoma was above 100 µM throughout. In addition, the TGI with CCRF-CEM leukemia, in the assay with HCC-2998 colon, in the assay with CAKI-1 renal, with SR leukemia, in the assay with NCI-H226 lung and with LOX IMVI melanoma was above 100 µM throughout. The TGI with TK-10 renal, in the assay on COLO 205 colon, in the assay with UACC-257 melanoma and in the assay on MALME-3M melanoma was above 100 µM each time.

In the case of `Cc1cc(C(=O)Nc2n[nH]c3ccccc23)n[nH]1`, the GI50 is above 100 µM in the assay with CCRF-CEM leukemia; 50.6 µM in the assay with HCC-2998 colon; 90.5 µM in the assay with CAKI-1 renal; 80.6 µM in the assay with SR leukemia; above 100 µM in the assay on NCI-H226 lung; above 100 µM in the assay with LOX IMVI melanoma. The GI50 in the assay with TK-10 renal, in the assay with COLO 205 colon, with UACC-257 melanoma and in the assay with MALME-3M melanoma was above 100 µM each time. The TGI in the assay on CCRF-CEM leukemia, in the assay with HCC-2998 colon, in the assay on CAKI-1 renal, in the assay on SR leukemia, in the assay on NCI-H226 lung and in the assay on LOX IMVI melanoma was above 100 µM each time. Moreover, the TGI in the assay with TK-10 renal, with COLO 205 colon, with UACC-257 melanoma and in the assay with MALME-3M melanoma was above 100 µM each time.

With `C1OC1CN1CCN(CC2CO2)CC1` (centres undefined), the TGI is above 100 µM with CCRF-CEM leukemia; above 100 µM in the assay with HCC-2998 colon; above 100 µM in the assay with CAKI-1 renal; 23.3 µM in the assay with SR leukemia; above 100 µM with NCI-H226 lung; above 100 µM in the assay with LOX IMVI melanoma. In addition, the TGI in the assay with TK-10 renal, with COLO 205 colon, in the assay with UACC-257 melanoma and in the assay with MALME-3M melanoma was above 100 µM each time.

Take `Cc1ccc(C(=O)NCCCOc2ccc(N3C(N)=NC(N)=NC3(C)C)cc2Cl)cc1S(=O)(=O)F`: the GI50 is 5.33 µM in the assay on CCRF-CEM leukemia; 24 µM in the assay on HCC-2998 colon; above 100 µM with CAKI-1 renal; above 100 µM with SR leukemia; above 100 µM with NCI-H226 lung; 5.05 µM with LOX IMVI melanoma. In addition, the GI50 with TK-10 renal is above 100 µM; in the assay on COLO 205 colon, 38.1 µM; in the assay on UACC-257 melanoma it was above 100 µM; with MALME-3M melanoma it was above 100 µM. Besides, the TGI with CCRF-CEM leukemia, with HCC-2998 colon, in the assay on CAKI-1 renal, in the assay with SR leukemia, in the assay with NCI-H226 lung and with LOX IMVI melanoma was above 100 µM in each case. Further, the TGI in the assay with TK-10 renal, in the assay with COLO 205 colon, with UACC-257 melanoma and in the assay on MALME-3M melanoma was above 100 µM in each case.

In the case of `Cc1coc2c1C(=O)C(=O)c1ccccc1-2`, the TGI stood at 5.49 µM with CCRF-CEM leukemia; 3.35 µM with HCC-2998 colon; 3.63 µM in the assay with CAKI-1 renal; 4.78 µM in the assay on SR leukemia; 2.55 µM in the assay on NCI-H226 lung; 1.05 µM in the assay on LOX IMVI melanoma. Besides, the TGI in the assay with TK-10 renal worked out at 3.3 µM; in the assay with UACC-257 melanoma it was 0.542 µM; in the assay with MALME-3M melanoma, 2.96 µM.

These data come from PubChem BioAssay (NCI).
